Three compounds from EP3046573B1, “AMYLIN ANALOGUES” (Zealand Pharma A/S, priority 2013, dated 2015) can be followed below.

SMILES strings stand for the structures. Numbered stars: 1 amine (or outer) side, 2 acyl side, 3 side chain; on linkers, the order of the positions; unused ones are H or OH. Bridge positions count the residues as written; N and C are the ends. Square brackets hold non-standard residues; d marks the D form. Peptide text beside a SMILES is read from it. * marks the point of attachment. Pro(trans-4-Ph) = O=C(O)[C@@H]1C[C@@H](c2ccccc2)CN1; Pro(4R-Bn) = O=C(O)[C@@H]1C[C@@H](Cc2ccccc2)CN1; C20 diacid = O=C(O)CCCCCCCCCCCCCCCCCCC(=O)*; γGlu = O=C(O)[C@H](CCC(=O)[*:2])N[*:1]; NMeI = CC[C@H](C)[C@H](NC)C(=O)O; Sar = CNCC(=O)O

The target in data set [1] is T1, human calcitonin receptor (hCTR2) (Homo sapiens, UniProt P30988).
T1 construct: expressed in transfected cells
T1 sequence (P30988 25-474): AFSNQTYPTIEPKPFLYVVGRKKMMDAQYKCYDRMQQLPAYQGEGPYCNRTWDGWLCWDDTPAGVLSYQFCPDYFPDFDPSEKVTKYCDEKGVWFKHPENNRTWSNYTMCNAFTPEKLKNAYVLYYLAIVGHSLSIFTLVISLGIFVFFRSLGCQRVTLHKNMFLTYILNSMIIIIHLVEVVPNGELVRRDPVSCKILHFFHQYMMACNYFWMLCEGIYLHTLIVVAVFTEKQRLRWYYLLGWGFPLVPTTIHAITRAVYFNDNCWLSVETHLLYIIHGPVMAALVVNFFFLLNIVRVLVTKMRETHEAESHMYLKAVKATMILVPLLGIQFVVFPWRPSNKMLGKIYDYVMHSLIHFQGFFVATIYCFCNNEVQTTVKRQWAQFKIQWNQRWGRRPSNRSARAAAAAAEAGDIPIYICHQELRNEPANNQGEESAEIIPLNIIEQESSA
As to the kind of experiment: hCTR2 assay: induction of cAMP (AlphaScreen cAMP Assay kit) in COS7 cells expressing hCTR2. Type of data set: cell-based. An outline of the steps: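 Peptide-induced cAMP in hCTR2-expressing COS7 cells, 15 min at 37° C with phosphodiesterase inhibitor IBMX (100 µM), detected by AlphaScreen; potency from 4PL curves.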
For orientation: In Alpha technology, singlet oxygen from a donor bead excites a nearby acceptor bead.

Data set [2] addresses T2, human amylin receptor 3 (hAMYR3) consisting of hCTR2 co-expressed with human Receptor Activity Modifying Protein 3 (hRAMP3) (Homo sapiens, UniProt O60896+P30988).
T2 construct: expressed in transfected cells
T2 sequence (P30988 25-474): T1 sequence (P30988 25-474)
T2 sequence (O60896 24-148 partner): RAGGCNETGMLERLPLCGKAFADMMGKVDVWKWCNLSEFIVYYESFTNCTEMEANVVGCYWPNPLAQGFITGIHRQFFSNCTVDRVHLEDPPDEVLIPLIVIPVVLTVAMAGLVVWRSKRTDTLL
As to the kind of experiment: hAMYR3 assay: induction of cAMP (AlphaScreen cAMP Assay kit) in COS7 cells expressing hAMYR3. The class given is cell-based. An outline of the steps: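 cAMP accumulation read by AlphaScreen in lysates of RAMP-naive COS7 cells stably transfected with hCTR2 plus hRAMP3. Cells exposed to peptide dilutions for 15 min, 37° C, with 100 µM IBMX; 4PL fitting gave EC50 and efficacy relative to pramlintide.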

A short description of data set [3]: Solubility assessment (turbidity absorbance at 325 nm). Type of data set: physicochemical. To be noted: stock 2 mg/ml diluted 1:1, ambient temperature (typically 25°C), n=1; for Solubility, Acetate buffer pH 4: 100 mM acetate buffer pH 4.0; for Solubility, Acetate buffer pH 5: 100 mM acetate buffer pH 5.0; for Solubility, Histidine buffer pH 6: 100 mM histidine buffer pH 6.0; for Solubility, Histidine buffer pH 7: 100 mM histidine buffer pH 7.0; for Solubility, Phosphate buffer pH 6: 100 mM phosphate buffer pH 6.0; for Solubility, Phosphate buffer pH 7: 100 mM phosphate buffer pH 7.0; for Solubility, Phosphate buffer pH 7.5: 100 mM phosphate buffer pH7.5. An outline of the steps: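 Turbidimetric screen across pH 4.0–7.5 in 100 mM acetate, histidine and phosphate buffers. A 2 mg/ml peptide stock (pH 2.5) was diluted 1:1 into each, then A325 measured at ambient temperature; values ≤ 0.02 AU denoted solubility of 1 mg/ml or more.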

What is called EC50 is the concentration at which the effect is half-maximal. For `CC[C@H](C)[C@@H](C(=O)N[C@@H](CC(C)C)C(=O)N[C@@H](CO)C(=O)N[C@@H](CO)C(=O)N[C@H](C(=O)N[C@@H](CC(N)=O)C(=O)N[C@H](C(=O)NCC(=O)N[C@@H](CO)C(=O)N[C@@H](CC(N)=O)C(=O)N[C@H](C(=O)N1C[C@H](c2ccccc2)C[C@H]1C(N)=O)[C@@H](C)O)C(C)C)[C@@H](C)O)N(C)C(=O)[C@H](C)NC(=O)CN(C)C(=O)[C@H](Cc1ccccc1)NC(=O)[C@H](CC(N)=O)NC(=O)[C@H](CC(N)=O)NC(=O)[C@H](CO)NC(=O)[C@H](CO)NC(=O)[C@H](CCCNC(=N)N)NC(=O)[C@H](Cc1c[nH]cn1)NC(=O)[C@H](CC(C)C)NC(=O)[C@H](Cc1ccccc1)NC(=O)[C@H](CCC(=O)O)NC(=O)[C@H](C)NC(=O)[C@H](CC(C)C)NC(=O)[C@H](CCCNC(=N)N)NC(=O)[C@H](CCC(N)=O)NC(=O)[C@@H](NC(=O)[C@H](C)NC(=O)[C@@H]1CSSC[C@H](NC(=O)[C@H](CCCNC(=N)N)NC(=O)CC[C@H](NC(=O)CCCCCCCCCCCCCCCCCCC(=O)O)C(=O)O)C(=O)N[C@@H](CC(N)=O)C(=O)N[C@@H]([C@@H](C)O)C(=O)N[C@@H](C)C(=O)N[C@@H]([C@@H](C)O)C(=O)N1)[C@@H](C)O` [Compound 112, [19CD]-isoGlu-RC()NTATC()ATQRLAEFLHRSSNNF-Gly(Me)-A-Ile(Me)-LSSTNVGSNT-Php-NH2] ({C20 diacid-γGlu}-RCNTATCATQRLAEFLHRSSNNF[Sar]A[NMeI]LSSTNVGSNT[Pro(trans-4-Ph)]-NH2; disulfide 2-7), the EC50 in data set [1] was 0.16 nM. In data set [2], this compound returned an EC50 of 0.15 nM. In data set [3], the “Solubility, Acetate buffer pH 4” value is given as “SS (SS indicates solubility ≥ 1mg/ml)”; the “Solubility, Acetate buffer pH 5” value is “SS (SS indicates solubility ≥ 1mg/ml)”; the “Solubility, Histidine buffer pH 6” value is on record as “SS (SS indicates solubility ≥ 1mg/ml)”; the “Solubility, Histidine buffer pH 7” value is given as “II (II indicates solubility ≤ 1 mg/ml)”. In data set [3], the “Solubility, Phosphate buffer pH 6” value was “II (II indicates solubility ≤ 1 mg/ml)”; the “Solubility, Phosphate buffer pH 7” value is “SS (SS indicates solubility ≥ 1mg/ml)”; the “Solubility, Phosphate buffer pH 7.5” value is “II (II indicates solubility ≤ 1 mg/ml)”.

`CC[C@H](C)[C@@H](C(=O)N[C@@H](CC(C)C)C(=O)N[C@@H](CO)C(=O)N[C@@H](CO)C(=O)N[C@H](C(=O)N[C@@H](CC(N)=O)C(=O)N[C@H](C(=O)NCC(=O)N[C@@H](CO)C(=O)N[C@@H](CC(N)=O)C(=O)N[C@H](C(=O)N1C[C@H](Cc2ccccc2)C[C@H]1C(N)=O)[C@@H](C)O)C(C)C)[C@@H](C)O)N(C)C(=O)[C@H](C)NC(=O)CN(C)C(=O)[C@H](Cc1ccccc1)NC(=O)[C@H](CC(N)=O)NC(=O)[C@H](CC(N)=O)NC(=O)[C@H](CO)NC(=O)[C@H](CO)NC(=O)[C@H](CCCNC(=N)N)NC(=O)[C@H](Cc1c[nH]cn1)NC(=O)[C@H](CC(C)C)NC(=O)[C@H](Cc1ccccc1)NC(=O)[C@H](CCC(=O)O)NC(=O)[C@H](C)NC(=O)[C@H](CC(C)C)NC(=O)[C@H](CCCNC(=N)N)NC(=O)[C@H](CCC(N)=O)NC(=O)[C@@H](NC(=O)[C@H](C)NC(=O)[C@@H]1CSSC[C@H](NC(=O)[C@H](CCCNC(=N)N)NC(=O)CC[C@H](NC(=O)CCCCCCCCCCCCCCCCCCC(=O)O)C(=O)O)C(=O)N[C@@H](CC(N)=O)C(=O)N[C@@H]([C@@H](C)O)C(=O)N[C@@H](C)C(=O)N[C@@H]([C@@H](C)O)C(=O)N1)[C@@H](C)O` [Compound 114, [19CD]-isoGlu-RC()NTATC()ATQRLAEFLHRSSNNF-Gly(Me)-A-Ile(Me)-LSSTNVGSNT-Bep-NH2] ({C20 diacid-γGlu}-RCNTATCATQRLAEFLHRSSNNF[Sar]A[NMeI]LSSTNVGSNT[Pro(4R-Bn)]-NH2; disulfide 2-7): the EC50 in data set [1] came out at 0.21 nM. Also, the EC50 in data set [2] turned out to be 0.18 nM. Further, in data set [3], the “Solubility, Acetate buffer pH 4” value is recorded as “SS (SS indicates solubility ≥ 1mg/ml)”; the “Solubility, Acetate buffer pH 5” value is “SS (SS indicates solubility ≥ 1mg/ml)”; the “Solubility, Histidine buffer pH 6” value is recorded as “SS (SS indicates solubility ≥ 1mg/ml)”; the “Solubility, Histidine buffer pH 7” value was “II (II indicates solubility ≤ 1 mg/ml)”. Also, in data set [3], the “Solubility, Phosphate buffer pH 6” value is “II (II indicates solubility ≤ 1 mg/ml)”; the “Solubility, Phosphate buffer pH 7” value was “II (II indicates solubility ≤ 1 mg/ml)”; the “Solubility, Phosphate buffer pH 7.5” value is “II (II indicates solubility ≤ 1 mg/ml)”.

In the case of `CC[C@H](C)[C@@H](C(=O)N[C@@H](CC(C)C)C(=O)N[C@@H](CO)C(=O)N[C@@H](CO)C(=O)N[C@H](C(=O)N[C@@H](CC(N)=O)C(=O)N[C@H](C(=O)NCC(=O)N[C@@H](CO)C(=O)N[C@@H](CC(N)=O)C(=O)N[C@H](C(=O)N[C@@H](Cc1ccccc1)C(N)=O)[C@@H](C)O)C(C)C)[C@@H](C)O)N(C)C(=O)[C@H](C)NC(=O)CN(C)C(=O)[C@H](Cc1ccccc1)NC(=O)[C@H](CC(N)=O)NC(=O)[C@H](CC(N)=O)NC(=O)[C@H](CO)NC(=O)[C@H](CO)NC(=O)[C@H](CCCNC(=N)N)NC(=O)[C@H](Cc1c[nH]cn1)NC(=O)[C@H](CC(C)C)NC(=O)[C@H](Cc1ccccc1)NC(=O)[C@H](CCC(=O)O)NC(=O)[C@H](C)NC(=O)[C@H](CC(C)C)NC(=O)[C@H](CCCNC(=N)N)NC(=O)[C@H](CCC(N)=O)NC(=O)[C@@H](NC(=O)[C@H](C)NC(=O)[C@@H]1CSSC[C@H](NC(=O)[C@H](CCCNC(=N)N)NC(=O)CC[C@H](NC(=O)CCCCCCCCCCCCCCCCCCC(=O)O)C(=O)O)C(=O)N[C@@H](CC(N)=O)C(=O)N[C@@H]([C@@H](C)O)C(=O)N[C@@H](C)C(=O)N[C@@H]([C@@H](C)O)C(=O)N1)[C@@H](C)O` [Compound 115, [19CD]-isoGlu-RC()NTATC()ATQRLAEFLHRSSNNF-Gly(Me)-A-Ile(Me)-LSSTNVGSNTF-NH2] ({C20 diacid-γGlu}-RCNTATCATQRLAEFLHRSSNNF[Sar]A[NMeI]LSSTNVGSNTF-NH2; disulfide 2-7), in data set [1], the EC50 turned out to be 0.47 nM. In addition, a half-maximal effect in data set [2] (EC50) was put at 0.37 nM. Also, in data set [3], the “Solubility, Acetate buffer pH 4” value is recorded as “SS (SS indicates solubility ≥ 1mg/ml)”; the “Solubility, Acetate buffer pH 5” value is reported as “SS (SS indicates solubility ≥ 1mg/ml)”; the “Solubility, Histidine buffer pH 6” value is given as “SS (SS indicates solubility ≥ 1mg/ml)”; the “Solubility, Histidine buffer pH 7” value is given as “II (II indicates solubility ≤ 1 mg/ml)”. Moreover, in data set [3], the “Solubility, Phosphate buffer pH 6” value is “II (II indicates solubility ≤ 1 mg/ml)”; the “Solubility, Phosphate buffer pH 7” value is on record as “SS (SS indicates solubility ≥ 1mg/ml)”; the “Solubility, Phosphate buffer pH 7.5” value is listed as “II (II indicates solubility ≤ 1 mg/ml)”.
